# PubChem BioAssay (NCI)
#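 A five-concentration, 48-hour dose response in 96-well plates underlies each endpoint, interpolated linearly between surrounding concentrations. Here, GI50 denotes the concentration required for 50% inhibition of growth. TGI: concentration producing complete growth inhibition.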
# Key:
# Experiment in all cases: NCI-60 cell line screen, 48 h
# 786-0 renal = system: 786-0 renal
# A498 renal = system: A498 renal
# A549 NSCLC = system: A549 NSCLC
# ACHN renal = system: ACHN renal
# BT-549 breast = system: BT-549 breast
# CAKI-1 renal = system: CAKI-1 renal
# CCRF-CEM leukemia = system: CCRF-CEM leukemia
# COLO 205 colon = system: COLO 205 colon
# DU-145 prostate = system: DU-145 prostate
# EKVX NSCLC = system: EKVX NSCLC
# HCC-2998 colon = system: HCC-2998 colon
# HCT-116 colon = system: HCT-116 colon
# HCT-15 colon = system: HCT-15 colon
# HL-60(TB) leukemia = system: HL-60(TB) leukemia
# HOP-62 NSCLC = system: HOP-62 NSCLC
# HOP-92 NSCLC = system: HOP-92 NSCLC
# HS 578T breast = system: HS 578T breast
# HT29 colon = system: HT29 colon
# IGROV1 ovarian = system: IGROV1 ovarian
# K-562 leukemia = system: K-562 leukemia
# KM12 colon = system: KM12 colon
# LOX IMVI melanoma = system: LOX IMVI melanoma
# M14 melanoma = system: M14 melanoma
# MALME-3M melanoma = system: MALME-3M melanoma
# MCF7 breast = system: MCF7 breast
# MDA-MB-231 breast = system: MDA-MB-231 breast
# MDA-MB-435 = system: MDA-MB-435
# MOLT-4 leukemia = system: MOLT-4 leukemia
# NCI-H226 lung = system: NCI-H226 lung
# NCI-H23 lung = system: NCI-H23 lung
# NCI-H460 lung = system: NCI-H460 lung
# NCI-H522 lung = system: NCI-H522 lung
# NCI/ADR-RES ovarian = system: NCI/ADR-RES ovarian
# OVCAR-3 ovarian = system: OVCAR-3 ovarian
# OVCAR-4 ovarian = system: OVCAR-4 ovarian
# OVCAR-5 ovarian = system: OVCAR-5 ovarian
# OVCAR-8 ovarian = system: OVCAR-8 ovarian
# PC-3 prostate = system: PC-3 prostate
# RPMI-8226 leukemia = system: RPMI-8226 leukemia
# RXF 393 renal = system: RXF 393 renal
# SF-268 CNS = system: SF-268 CNS
# SF-295 CNS = system: SF-295 CNS
# SF-539 CNS = system: SF-539 CNS
# SK-MEL-2 melanoma = system: SK-MEL-2 melanoma
# SK-MEL-28 melanoma = system: SK-MEL-28 melanoma
# SK-MEL-5 melanoma = system: SK-MEL-5 melanoma
# SK-OV-3 ovarian = system: SK-OV-3 ovarian
# SN12C renal = system: SN12C renal
# SNB-19 CNS = system: SNB-19 CNS
# SNB-75 CNS = system: SNB-75 CNS
# SR leukemia = system: SR leukemia
# SW-620 colon = system: SW-620 colon
# T-47D breast = system: T-47D breast
# TK-10 renal = system: TK-10 renal
# U251 CNS = system: U251 CNS
# UACC-257 melanoma = system: UACC-257 melanoma
# UACC-62 melanoma = system: UACC-62 melanoma
# UO-31 renal = system: UO-31 renal
smiles,measurement,setting,value
CC(C)(C(=O)NCC(F)(F)C(F)(F)F)C(=O)N[C@@H]1C(=O)Nc2ccccc2-c2ccccc21,GI50,786-0 renal,> 64.3 µM
same,TGI,786-0 renal,> 100 µM
same,GI50,A498 renal,50.3 µM
same,TGI,A498 renal,> 100 µM
same,GI50,A549 NSCLC,51.9 µM
same,TGI,A549 NSCLC,> 100 µM
same,GI50,ACHN renal,50.4 µM
same,TGI,ACHN renal,> 100 µM
same,GI50,BT-549 breast,36.3 µM
same,TGI,BT-549 breast,> 100 µM
same,GI50,CAKI-1 renal,45.4 µM
same,TGI,CAKI-1 renal,> 100 µM
same,GI50,CCRF-CEM leukemia,45.3 µM
same,TGI,CCRF-CEM leukemia,> 100 µM
same,GI50,COLO 205 colon,34 µM
same,TGI,COLO 205 colon,> 100 µM
same,GI50,DU-145 prostate,> 87.2 µM
same,TGI,DU-145 prostate,> 100 µM
same,GI50,EKVX NSCLC,52.7 µM
same,TGI,EKVX NSCLC,> 100 µM
same,GI50,HCC-2998 colon,40.6 µM
same,TGI,HCC-2998 colon,> 100 µM
same,GI50,HCT-116 colon,46.1 µM
same,TGI,HCT-116 colon,> 100 µM
same,GI50,HCT-15 colon,51.3 µM
same,TGI,HCT-15 colon,> 100 µM
same,GI50,HL-60(TB) leukemia,37.5 µM
same,TGI,HL-60(TB) leukemia,> 100 µM
same,GI50,HOP-62 NSCLC,> 93.4 µM
same,TGI,HOP-62 NSCLC,> 100 µM
same,GI50,HOP-92 NSCLC,39.2 µM
same,TGI,HOP-92 NSCLC,> 100 µM
same,GI50,HS 578T breast,> 56 µM
same,TGI,HS 578T breast,> 100 µM
same,GI50,HT29 colon,39.7 µM
same,TGI,HT29 colon,> 100 µM
same,GI50,IGROV1 ovarian,> 71.6 µM
same,TGI,IGROV1 ovarian,> 100 µM
same,GI50,K-562 leukemia,> 67.3 µM
same,TGI,K-562 leukemia,> 100 µM
same,GI50,KM12 colon,73.3 µM
same,TGI,KM12 colon,> 100 µM
same,GI50,LOX IMVI melanoma,> 59.2 µM
same,TGI,LOX IMVI melanoma,> 100 µM
same,GI50,M14 melanoma,38.8 µM
same,TGI,M14 melanoma,> 100 µM
same,GI50,MALME-3M melanoma,> 61.9 µM
same,TGI,MALME-3M melanoma,> 100 µM
same,GI50,MCF7 breast,27.3 µM
same,TGI,MCF7 breast,> 100 µM
same,GI50,MDA-MB-231 breast,44 µM
same,TGI,MDA-MB-231 breast,> 100 µM
same,GI50,MDA-MB-435,> 63.7 µM
same,TGI,MDA-MB-435,> 100 µM
same,GI50,MOLT-4 leukemia,40.3 µM
same,TGI,MOLT-4 leukemia,> 100 µM
same,GI50,NCI-H226 lung,30.1 µM
same,TGI,NCI-H226 lung,> 100 µM
same,GI50,NCI-H23 lung,> 67 µM
same,TGI,NCI-H23 lung,> 100 µM
same,GI50,NCI-H460 lung,52.4 µM
same,TGI,NCI-H460 lung,> 100 µM
same,GI50,NCI-H522 lung,65.1 µM
same,TGI,NCI-H522 lung,> 100 µM
same,GI50,NCI/ADR-RES ovarian,42.4 µM
same,TGI,NCI/ADR-RES ovarian,> 100 µM
same,GI50,OVCAR-3 ovarian,68.8 µM
same,TGI,OVCAR-3 ovarian,> 100 µM
same,GI50,OVCAR-4 ovarian,34.1 µM
same,TGI,OVCAR-4 ovarian,> 100 µM
same,GI50,OVCAR-5 ovarian,97 µM
same,TGI,OVCAR-5 ovarian,> 100 µM
same,GI50,OVCAR-8 ovarian,55.6 µM
same,TGI,OVCAR-8 ovarian,> 100 µM
same,GI50,PC-3 prostate,50.8 µM
same,TGI,PC-3 prostate,> 100 µM
same,GI50,RPMI-8226 leukemia,54.5 µM
same,TGI,RPMI-8226 leukemia,> 100 µM
same,GI50,RXF 393 renal,20 µM
same,TGI,RXF 393 renal,> 78.7 µM
same,GI50,SF-268 CNS,67.5 µM
same,TGI,SF-268 CNS,> 100 µM
same,GI50,SF-295 CNS,43.7 µM
same,TGI,SF-295 CNS,> 100 µM
same,GI50,SF-539 CNS,> 84.8 µM
same,TGI,SF-539 CNS,> 100 µM
same,GI50,SK-MEL-2 melanoma,> 57.2 µM
same,TGI,SK-MEL-2 melanoma,> 100 µM
same,GI50,SK-MEL-28 melanoma,42 µM
same,TGI,SK-MEL-28 melanoma,> 100 µM
same,GI50,SK-MEL-5 melanoma,16 µM
same,TGI,SK-MEL-5 melanoma,37.5 µM
same,GI50,SK-OV-3 ovarian,99 µM
same,TGI,SK-OV-3 ovarian,> 100 µM
same,GI50,SN12C renal,> 85 µM
same,TGI,SN12C renal,> 100 µM
same,GI50,SNB-19 CNS,62.3 µM
same,TGI,SNB-19 CNS,> 100 µM
same,GI50,SNB-75 CNS,21.6 µM
same,TGI,SNB-75 CNS,> 100 µM
same,GI50,SR leukemia,35.5 µM
same,TGI,SR leukemia,99 µM
same,GI50,SW-620 colon,> 70.2 µM
same,TGI,SW-620 colon,> 100 µM
same,GI50,T-47D breast,23.7 µM
same,TGI,T-47D breast,99 µM
same,GI50,TK-10 renal,> 100 µM
same,TGI,TK-10 renal,> 100 µM
same,GI50,U251 CNS,> 78.5 µM
same,TGI,U251 CNS,> 100 µM
same,GI50,UACC-257 melanoma,47.3 µM
same,TGI,UACC-257 melanoma,> 100 µM
same,GI50,UACC-62 melanoma,29.2 µM
same,TGI,UACC-62 melanoma,> 100 µM
same,GI50,UO-31 renal,32.3 µM
same,TGI,UO-31 renal,> 100 µM
